Where “and” joins values, the source holds several entries; their conditions need not be identical. Equal values may be shown once. Square brackets hold non-standard residues; d marks the D form. Peptide text beside a SMILES is read from it. * marks the point of attachment. Sta = CC(C)C[C@H](N)[C@@H](O)CC(=O)O; NHPhenethyl = c1ccc(CCN*)cc1; Cbz = O=C(OCc1ccccc1)*; Bz = O=C(c1ccccc1)*
Legend:
HepG2 = assay: Cytotoxicity against human HepG2 cells assessed as cell death after 48 hrs by Cell Titer-Glo assay; format: cell-based; settings: HepG2, 48 h
Cathepsin D = Cathepsin D (Homo sapiens, UniProt P07339); assay: Inhibition of human cathepsin D assessed as cleavage of wtKAHRP fluorogenic substrate
Sequence of Cathepsin D (P07339 65-162 limits assumed): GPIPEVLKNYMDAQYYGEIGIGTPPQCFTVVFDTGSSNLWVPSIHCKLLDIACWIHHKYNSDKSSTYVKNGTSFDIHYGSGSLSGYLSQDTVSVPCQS
Sequence of Cathepsin D (P07339 169-412 limits assumed): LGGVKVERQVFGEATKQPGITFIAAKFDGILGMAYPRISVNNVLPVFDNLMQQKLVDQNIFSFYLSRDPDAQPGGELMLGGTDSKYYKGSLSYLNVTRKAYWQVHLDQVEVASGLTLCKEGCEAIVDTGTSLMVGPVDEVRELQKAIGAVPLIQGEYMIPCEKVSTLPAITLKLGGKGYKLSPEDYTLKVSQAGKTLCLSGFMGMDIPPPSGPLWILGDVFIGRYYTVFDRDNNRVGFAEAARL

Plasmodium falciparum = assay: Antiplasmodial activity against Plasmodium falciparum 3D7 infected in human O positive erythrocyte after 72 hrs; format: functional, organism-based; settings: 3D7, 72 h
Beta-secretase 1 = Beta-secretase 1 (Homo sapiens, UniProt P56817); assay: Inhibition of human BACE1 assessed as cleavage of TRF substrate
Sequence of Beta-secretase 1 (P56817 whole entry): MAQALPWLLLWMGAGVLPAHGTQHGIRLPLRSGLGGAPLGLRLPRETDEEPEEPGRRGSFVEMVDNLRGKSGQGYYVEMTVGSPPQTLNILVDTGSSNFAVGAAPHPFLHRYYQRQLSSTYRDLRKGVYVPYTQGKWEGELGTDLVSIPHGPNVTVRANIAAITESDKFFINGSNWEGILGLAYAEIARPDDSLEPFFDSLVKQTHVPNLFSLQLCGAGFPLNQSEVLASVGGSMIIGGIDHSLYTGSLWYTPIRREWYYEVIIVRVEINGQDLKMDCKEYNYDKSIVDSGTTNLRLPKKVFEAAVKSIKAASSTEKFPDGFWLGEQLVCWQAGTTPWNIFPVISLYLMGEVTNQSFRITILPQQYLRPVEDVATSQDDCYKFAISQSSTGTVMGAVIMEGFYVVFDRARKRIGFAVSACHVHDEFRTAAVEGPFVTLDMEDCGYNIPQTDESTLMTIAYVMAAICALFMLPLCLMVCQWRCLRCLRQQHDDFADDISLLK

Plasmepsin V [1] = biological target: Plasmepsin V (Plasmodium falciparum (isolate 3D7), UniProt Q8I6Z5); assay: Inhibition of Plasmodium falciparum plasmepsin V assessed as cleavage of wtKAHRP fluorogenic substrate
Sequence of Plasmepsin V (Plasmodium falciparum (isolate 3D7), UniProt Q8I6Z5) (Q8I6Z5 whole entry): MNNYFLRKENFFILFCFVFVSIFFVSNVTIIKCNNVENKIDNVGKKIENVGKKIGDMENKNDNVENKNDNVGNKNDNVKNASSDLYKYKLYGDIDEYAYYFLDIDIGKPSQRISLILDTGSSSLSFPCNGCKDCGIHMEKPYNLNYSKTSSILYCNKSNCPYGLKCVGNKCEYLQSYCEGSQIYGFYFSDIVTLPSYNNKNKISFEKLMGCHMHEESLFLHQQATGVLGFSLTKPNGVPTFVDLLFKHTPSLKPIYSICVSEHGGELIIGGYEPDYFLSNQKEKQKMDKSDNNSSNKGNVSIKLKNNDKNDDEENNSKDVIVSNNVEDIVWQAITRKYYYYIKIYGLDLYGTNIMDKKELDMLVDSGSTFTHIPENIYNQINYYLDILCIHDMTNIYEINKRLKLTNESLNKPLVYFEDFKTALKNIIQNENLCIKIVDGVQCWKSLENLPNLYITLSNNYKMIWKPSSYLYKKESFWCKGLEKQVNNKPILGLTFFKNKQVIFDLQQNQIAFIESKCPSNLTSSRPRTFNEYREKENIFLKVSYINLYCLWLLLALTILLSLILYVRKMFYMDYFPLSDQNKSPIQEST

[2] = biological target: Plasmepsin V (Plasmodium falciparum (isolate 3D7)) (UniProt Q8I6Z5); assay: Inhibition of plasmepsin V in Plasmodium falciparum trophozoite expressing PfEMP3-GFP infected erythrocyte assessed as PEXEL processing at 20 uM by immunoblotting analysis
Sequence of Plasmepsin V (Plasmodium falciparum (isolate 3D7)) (Q8I6Z5 whole entry, looked up): as the sequence (Q8I6Z5 whole entry) above

Plasmepsin V [3] = biological target: Plasmepsin V (Plasmodium vivax, UniProt A0A0H4FQ60); assay: Inhibition of Plasmodium vivax plasmepsin V by fluorogenic PEXEL cleavage assay
Sequence of Plasmepsin V (Plasmodium vivax, UniProt A0A0H4FQ60) (A0A0H4FQ60 whole entry): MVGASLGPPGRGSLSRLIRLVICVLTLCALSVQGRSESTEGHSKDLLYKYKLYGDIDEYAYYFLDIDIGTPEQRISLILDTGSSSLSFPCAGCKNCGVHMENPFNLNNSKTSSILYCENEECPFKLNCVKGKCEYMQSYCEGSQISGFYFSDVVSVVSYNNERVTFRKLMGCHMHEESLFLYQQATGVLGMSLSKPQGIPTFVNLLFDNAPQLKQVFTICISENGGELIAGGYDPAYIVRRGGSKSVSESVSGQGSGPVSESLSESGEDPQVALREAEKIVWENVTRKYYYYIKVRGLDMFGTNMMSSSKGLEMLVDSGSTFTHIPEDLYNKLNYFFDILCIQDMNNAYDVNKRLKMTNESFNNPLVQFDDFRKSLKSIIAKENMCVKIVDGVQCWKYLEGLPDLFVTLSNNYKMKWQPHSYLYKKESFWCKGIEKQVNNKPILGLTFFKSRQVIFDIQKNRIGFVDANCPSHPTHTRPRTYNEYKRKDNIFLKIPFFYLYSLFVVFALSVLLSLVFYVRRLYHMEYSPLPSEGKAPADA

[4] = biological target: Plasmepsin V (Plasmodium falciparum (isolate 3D7)) (UniProt Q8I6Z5); assay: Inhibition of Plasmodium falciparum plasmepsin V assessed as cleavage of wtKAHRP fluorogenic substrate at 1 uM
[5] = biological target: Plasmepsin V (Plasmodium vivax) (UniProt A0A0H4FQ60); assay: Inhibition of Plasmodium vivax plasmepsin V at 1 uM by fluorogenic PEXEL cleavage assay
Sequence of Plasmepsin V (Plasmodium vivax) (A0A0H4FQ60 as listed by the source): as the sequence (A0A0H4FQ60 whole entry) above

IC50 (Cathepsin D) [µM] | EC50 (Plasmodium falciparum) [µM] | IC50 (Beta-secretase 1) [µM] | IC50 (Plasmepsin V [1]) [µM] | Activity [2] [OD/mm2] | IC50 (Plasmepsin V [3]) [µM] | inhibition [4] | inhibition [5] [%] | SMILES | EC50 (HepG2) [µM]
32 | 2.5 | > 100 | 0.019 | 2.76 | 0.024 | – | – | CC(C)C[C@H](NC(=O)[C@@H](NC(=O)[C@H](CCCNC(=N)N)NS(=O)(=O)Cc1ccccc1)C(C)C)[C@@H](O)CC(=O)NCCc1ccccc1 | > 50
> 100 | 34.6 | > 100 | 0.614 | 0.2 | – | 54% and 51% | – | CC(C)C[C@H](NC(=O)[C@H](C)NC(=O)[C@H](CCCNC(=N)N)NC(=O)OCc1ccccc1)[C@@H](O)CC(=O)NC1CCCCC1 | > 50
0.713 | 9.8 | > 100 | 0.029 | 0.24 | – | – | – | CC(C)C[C@H](NC(=O)[C@@H](NC(=O)[C@H](CCCNC(=N)N)NC(=O)OCc1ccccc1)C(C)C)[C@@H](O)CC(=O)NC1CCCCC1 | > 50
5.1 | 8.9 | > 100 | 0.077 | 0.26 | – | – | – | CC(C)C[C@H](NC(=O)[C@H](CCCNC(=N)N)NC(=O)OCc1ccccc1)C(=O)N[C@@H](CC(C)C)[C@@H](O)CC(=O)NC1CCCCC1 | > 50
0.447 | 6.8 | > 100 | 0.026 | 0.53 | – | – | – | CC[C@H](C)[C@H](NC(=O)[C@H](CCCNC(=N)N)NC(=O)OCc1ccccc1)C(=O)N[C@@H](CC(C)C)[C@@H](O)CC(=O)NC1CCCCC1 | –
> 100 | – | > 100 | 0.774 | – | – | 62% | – | CC(C)C[C@H](NC(=O)[C@H](C)NC(=O)[C@H](CCCNC(=N)N)NC(=O)c1ccccc1)[C@@H](O)CC(=O)NCCc1ccccc1 (Bz-Arg-Ala-[Sta]-NHPhenethyl) | –
29 | – | > 100 | 0.622 | – | – | 79% | – | CC(C)C[C@H](NC(=O)[C@H](C)NC(=O)[C@H](CCCNC(=N)N)NC(=O)OCc1ccccc1)[C@@H](O)CC(=O)NCCc1ccccc1 (Cbz-Arg-Ala-[Sta]-NHPhenethyl) | –
> 100 | > 50 | > 100 | > 20 | 0.18 | – | – | – | CC(C)C[C@H](NC(=O)[C@H](C)NC(=O)[C@H](CCCN)NC(=O)OCc1ccccc1)[C@@H](O)CC(=O)NC1CCCCC1 | > 50
> 100 | 23 | > 100 | 0.55 | 0.16 | – | 81% | – | CC(C)C[C@H](NC(=O)[C@H](C)NC(=O)[C@H](CCCNC(=N)N)NC(=O)COCc1ccccc1)[C@@H](O)CC(=O)NCCc1ccccc1 | > 50
– | – | – | > 20 | – | – | – | 35 | C[C@H](NC(=O)[C@H](CCCNC(=N)N)NC(=O)OCc1ccccc1)C(=O)N[C@@H](CC1CCCCC1)[C@@H](O)CC(=O)NC1CCCCC1 | –
> 100 | 16.3 | > 100 | 0.378 | 0.31 | – | 78% | – | CC(C)C[C@H](NC(=O)[C@H](C)NC(=O)[C@H](CCCNC(=N)N)NS(=O)(=O)c1ccccc1)[C@@H](O)CC(=O)NCCc1ccccc1 | > 50

SMILES | IC50 (Cathepsin D) [µM] | EC50 (Plasmodium falciparum) [µM] | IC50 (Beta-secretase 1) [µM] | IC50 (Plasmepsin V [1]) [µM] | Activity [2] [OD/mm2] | IC50 (Plasmepsin V [3]) [µM] | inhibition [4] | inhibition [5] [%] | EC50 (HepG2) [µM]
CCN(CC)CCCC(C)Nc1ccnc2cc(Cl)ccc12 (configuration not stated) [CHLOROQUINE] | – | 0.003 | – | – | – | – | – | – | –

From ChEMBL document CHEMBL3352063, “Transition state mimetics of the Plasmodium export element are potent inhibitors of Plasmepsin V from P. falciparum and P. vivax” (J Med Chem, 2014)
